Laboratory results from article PMC3715147 (Journal of natural products, 2013).

Legend:
HIV-1 NL4-3 = experiment: Anti-HIV assay: HIV-1 NL4-3 replication in MT4 cells; format: cell-based; conditions: Human immunodeficiency virus 1, NL43, Lymphocyte, read-out: anti-HIV EC90
HIV-1 R5 viruses = conditions: cited from earlier work
X4 or dual tropic HIV-1 = conditions: peripheral blood mononuclear cells (PBMCs); cited from earlier work

CCCCCCCCCC(=O)O[C@@]12[C@H](OC(=O)c3ccccc3)[C@@H](C)[C@@]3(O)[C@@H](C=C(CO)C[C@]4(O)C(=O)C(C)=C[C@@H]34)[C@@H]1C2(C)C [Compound 1, stellerarin]
EC90 (HIV-1 NL4-3): < 1 nM

CCCCCCCC(=O)O[C@]12[C@H]([C@@H]3C=C(CO)C[C@]4(O)C(=O)C(C)=C[C@H]4[C@@]3(O)C[C@H]1OC(=O)c1ccccc1)C2(C)C [Compound 2, 12-O-benzoylphorbol 13-octanoate]
EC90 (HIV-1 NL4-3): < 1 nM

CCCCC/C=C\CCC(=O)O[C@@]12[C@H](OC(=O)c3ccccc3)[C@@H](C)[C@@]3(O)[C@@H](C=C(CO)C[C@]4(O)C(=O)C(C)=C[C@@H]34)[C@@H]1C2(C)C [Compound 3, stelleracin A]
EC90 (HIV-1 NL4-3): < 1 nM

C=C(C)[C@@]12C[C@@H](COC(=O)c3ccccc3)[C@@]34OC5(O[C@@H]1[C@@H]3[C@@H]1O[C@]1(CO)[C@@H](O)[C@@]1(O)[C@H]4[C@H]([C@H](C)[C@@H]1OC(=O)c1ccccc1)[C@H](C)CCCCCC[C@H]5O)O2 [gnidimacrin]
inhibition of HIV-1 R5 viruses (in words) (HIV-1 R5 viruses): potent inhibitor | activity against X4 or dual tropic HIV-1 replication (in words) (X4 or dual tropic HIV-1): essentially inactive
